What follows are molecules tested on adjuvant-induced arthritis in rats (assay: Established adjuvant-induced arthritis in rats (paw volume of uninjected left hind paw)). Settings: Rattus norvegicus, 168 h; oral gavage daily, 7 days; established adjuvant-induced arthritis, Lewis male rats; ED50% by inspection of dose-response regression lines; read-out: ED50% Decrease From Control Paw Volume.
Type: in vivo, Charles River Lewis male rats
Protocol: A procedure for detecting and comparing the antiinflammatory activity of compounds in this series and standard drugs for which there is a good correlation with human efficacy is the adjuvant-induced arthritis test in rats.
The test procedure employed for determining antiinflammatory activity is described below.
ESTABLISHED ADJUVANT-INDUCED ARTHRITIS IN RATS
Charles River Lewis male rats (130-150 grams) are injected subcutaneously in plantar area of the right hind paw with 0.1 ml of adjuvant (Difco heat-killed, lyophilized Mycobacterium butyricum suspended in mineral oil 5 mg/ml). 20 Non-arthritic controls are injected with mineral oil. The animals are held for 2 weeks to allow development of arthritis. Paw volumes (uninjected, left hind paw) are measured and the adjuvant injected rats are culled and distributed to treatment groups of 10 of equal disease severity. Non-arthritic controls are distributed to 2 groups of 10. The rats are given oral doses of compound or PVA-Acacia (Polyvinyl Alcohol 1%, Gum Acacia, U.S.P. 5%, Methylparaben 0.5%) (10 ml/kg) by gavage on that day and on the 6 following days. One day after the last dose the paw volumes (uninjected, left hind paw) are measured using a Ugo Basile Volume Differential Meter Model 7101. [formula]
Dose-response regression lines of the % decrease are plotted on semi-log paper by visual fit and the ED50% decrease from control paw volume is determined by inspection.
Molecule `OC(c1cc(-c2ccc(F)cc2)c(-c2ccc(F)cc2)s1)(C(F)(F)F)C(F)(F)F` [Example 1, 4,5-Bis(4-fluorophenyl)-α,α-bis(trifluoromethyl)-2-thiophenemethanol] has an ED50 of 10 mg/kg.
`COc1ccc(-c2cc(C(O)(C(F)(F)F)C(F)(F)F)sc2-c2ccc(SC)cc2)cc1` [Example 4, 4-(4-Methoxyphenyl)-5-(4-methylthiophenyl)-α,α-bis(trifluoromethyl)-2-thiophenemethanol] showed an ED50 of 10 mg/kg.
Work on `OC(c1cc(-c2ccc(F)cc2)c(-c2ccc(Cl)cc2)s1)(C(F)(F)F)C(F)(F)F` [Example 5, 5-(4-Chlorophenyl)-4-(4-fluorophenyl)-α,α-bis(trifluoromethyl)-2-thiophenemethanol] yielded an ED50 of 9 mg/kg.
`OC(c1cc(-c2ccccc2)c(-c2ccccc2)s1)(C(F)(F)F)C(F)(F)F` [Example 6] was tested, and the ED50 was 21 mg/kg.
With `CC(O)(c1cc(-c2ccc(F)cc2)c(-c2ccc(F)cc2)s1)C(F)(F)F` (stereo not drawn) [Example 7, 4,5-Bis(4-fluorophenyl)-α-methyl-α-trifluoromethyl-2-thiophenemethanol] the ED50 was 5.5 mg/kg.
For `OC(c1cc(-c2ccc(F)cc2)c(-c2ccc(F)cc2)s1)(C(F)(F)Cl)C(F)(F)Cl` [Example 8, 4,5-Bis(4-fluorophenyl)-α,α-bis(chlorodifluoromethyl)-2-thiophenemethanol], the ED50 was 4.5 mg/kg.
For `OC(c1cc(-c2ccc(F)cc2)c(-c2ccc(F)cc2)s1)(C(F)F)C(F)(F)F` (stereo not drawn) [Example 9], the ED50 was 18 mg/kg.
For `OC(c1cc(-c2ccc(F)cc2)c(-c2ccc(F)cc2)s1)(C(F)(F)F)C(F)(F)Cl` (stereo not drawn) [Example 10, 4,5-Bis(4-fluorophenyl)-α-chlorodifluoromethyl-α-trifluoromethyl-2-thiophenemethanol], the ED50 was 6.8 mg/kg.
For `Cc1c(C(O)(C(F)(F)Cl)C(F)(F)Cl)sc(-c2ccc(F)cc2)c1-c1ccc(F)cc1` [Example 27, 3-Methyl-4,5-bis(4-fluorophenyl)-α,α-bis(chlorodifluoromethyl)-2-thiophenemethanol], the ED50 was 12 mg/kg.
Molecule `CCCCC1C(=O)N(c2ccccc2)N(c2ccccc2)C1=O` [Phenylbutazone, reference compound] has an ED50 of 10 mg/kg.

Same assay, conditions: Rattus norvegicus, po, 168 h, read-out: ED50% Decrease From Control Paw Volume
For `CC(=O)Oc1ccccc1C(=O)O` [Aspirin, reference compound], the ED50 was 270 mg/kg.
`COc1ccc2c(c1)c(CC(=O)O)c(C)n2C(=O)c1ccc(Cl)cc1` [Indomethacin, reference compound] was tested, and the ED50 was 0.25 mg/kg.

Same assay, conditions: daily oral dose 27 mg/kg, 7 days; established adjuvant-induced arthritis, rats; p < 0.1 (Ex. 2), p < 0.001 (Ex. 3) vs control, Student's t test
With `OC(c1cc(-c2ccc(F)cc2)c(-c2ccc(F)cc2)s1)(C(F)(F)Cl)C(F)(Cl)Cl` (stereo not drawn) [Example 2] the “Percent Decrease From Control Paw Volume” value was 20%.
`COc1ccc(-c2cc(C(O)(C(F)(F)F)C(F)(F)F)sc2-c2ccc(OC)cc2)cc1` [Example 3] was tested, and the “Percent Decrease From Control Paw Volume” value was 47%.

Same assay, conditions: daily oral dose 51 mg/kg, 7 days; established adjuvant-induced arthritis, rats; p < 0.001 vs control, Student's t test
With `CC(=O)OC(c1cc(-c2ccc(F)cc2)c(-c2ccc(F)cc2)s1)(C(F)(F)Cl)C(F)(F)Cl` [Example 29, 4,5-Bis(4-fluorophenyl)-α,α-bis(chlorodifluoromethyl)-2-thiophenemethanol, acetate] the “Percent Decrease From Control Paw Volume” value was 31%.

From patent US4381311A, “Antiinflammatory 4,5-diaryl-α-(polyhalomethyl)-2-thiophenemethanols” (E. I. Du Pont de Nemours and Company, priority 1981, dated 1983)
